What all share (format): cell-based
The target in one test is ATR kinase (Homo sapiens (Human), UniProt Q13535). As to the kind of experiment: Assay b) ATR cellular potency assay (pChk1 Ser345 in HT29 cells treated with 4NQO). Particulars: HT29 cells, pChk1 Ser345 after 4NQO; geometric mean where repeated; read-out: Assay b) ATR Cell IC50.
In another test the target is PI3K-α (Homo sapiens, UniProt P42336). As to the kind of experiment: Assay c) PI3K cellular potency assay (phospho-Akt T308 ELISA in BT474 cells). Particulars: BT474 cells, phospho-Akt T308, 2 h; geometric mean where repeated; read-out: Assay c) PI3Kα Cell IC50.
PI3K-α, sequence (P42336 whole entry, looked up): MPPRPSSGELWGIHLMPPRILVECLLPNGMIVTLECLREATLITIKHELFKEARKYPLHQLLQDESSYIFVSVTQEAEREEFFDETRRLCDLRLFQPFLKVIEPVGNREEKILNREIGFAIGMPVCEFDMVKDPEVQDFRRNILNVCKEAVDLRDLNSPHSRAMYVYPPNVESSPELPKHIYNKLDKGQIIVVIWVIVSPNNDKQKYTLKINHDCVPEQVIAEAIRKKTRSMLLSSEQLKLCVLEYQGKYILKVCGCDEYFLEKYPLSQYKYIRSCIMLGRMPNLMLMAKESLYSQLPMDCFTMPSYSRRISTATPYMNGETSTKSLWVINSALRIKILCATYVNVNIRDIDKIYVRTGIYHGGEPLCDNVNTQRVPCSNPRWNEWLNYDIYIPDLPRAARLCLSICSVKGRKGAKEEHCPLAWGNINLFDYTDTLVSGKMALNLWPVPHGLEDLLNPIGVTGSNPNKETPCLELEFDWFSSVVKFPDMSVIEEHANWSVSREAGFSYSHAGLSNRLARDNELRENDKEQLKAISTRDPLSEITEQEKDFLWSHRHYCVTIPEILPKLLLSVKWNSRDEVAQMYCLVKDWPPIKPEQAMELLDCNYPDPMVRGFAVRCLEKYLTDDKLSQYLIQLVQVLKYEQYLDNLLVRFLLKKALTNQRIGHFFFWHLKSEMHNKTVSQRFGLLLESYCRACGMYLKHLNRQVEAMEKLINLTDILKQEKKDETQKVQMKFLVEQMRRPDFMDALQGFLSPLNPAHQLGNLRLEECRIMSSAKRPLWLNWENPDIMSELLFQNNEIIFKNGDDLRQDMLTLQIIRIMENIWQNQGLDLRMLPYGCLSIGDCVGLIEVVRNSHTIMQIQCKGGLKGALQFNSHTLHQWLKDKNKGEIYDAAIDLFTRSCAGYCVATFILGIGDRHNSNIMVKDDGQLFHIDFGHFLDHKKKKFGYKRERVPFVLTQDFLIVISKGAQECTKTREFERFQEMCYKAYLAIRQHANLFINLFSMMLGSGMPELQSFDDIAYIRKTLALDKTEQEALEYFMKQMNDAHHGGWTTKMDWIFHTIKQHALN
In the next test the target is mTOR (Homo sapiens (Human), UniProt P42345). The experiment in a line: Assay d) mTOR cellular potency assay (phospho-AKT Ser473 in MDA-MB-468 cells). Particulars: MDA-MB-468 cells, phospho-AKT Ser473, 2 h; geometric mean where repeated; read-out: Assay d) mTOR Cell IC50.

Each structure is given as a SMILES string. Counter-ions that a name gives are not always drawn.

ATR kinase, sequence (Q13535 whole entry): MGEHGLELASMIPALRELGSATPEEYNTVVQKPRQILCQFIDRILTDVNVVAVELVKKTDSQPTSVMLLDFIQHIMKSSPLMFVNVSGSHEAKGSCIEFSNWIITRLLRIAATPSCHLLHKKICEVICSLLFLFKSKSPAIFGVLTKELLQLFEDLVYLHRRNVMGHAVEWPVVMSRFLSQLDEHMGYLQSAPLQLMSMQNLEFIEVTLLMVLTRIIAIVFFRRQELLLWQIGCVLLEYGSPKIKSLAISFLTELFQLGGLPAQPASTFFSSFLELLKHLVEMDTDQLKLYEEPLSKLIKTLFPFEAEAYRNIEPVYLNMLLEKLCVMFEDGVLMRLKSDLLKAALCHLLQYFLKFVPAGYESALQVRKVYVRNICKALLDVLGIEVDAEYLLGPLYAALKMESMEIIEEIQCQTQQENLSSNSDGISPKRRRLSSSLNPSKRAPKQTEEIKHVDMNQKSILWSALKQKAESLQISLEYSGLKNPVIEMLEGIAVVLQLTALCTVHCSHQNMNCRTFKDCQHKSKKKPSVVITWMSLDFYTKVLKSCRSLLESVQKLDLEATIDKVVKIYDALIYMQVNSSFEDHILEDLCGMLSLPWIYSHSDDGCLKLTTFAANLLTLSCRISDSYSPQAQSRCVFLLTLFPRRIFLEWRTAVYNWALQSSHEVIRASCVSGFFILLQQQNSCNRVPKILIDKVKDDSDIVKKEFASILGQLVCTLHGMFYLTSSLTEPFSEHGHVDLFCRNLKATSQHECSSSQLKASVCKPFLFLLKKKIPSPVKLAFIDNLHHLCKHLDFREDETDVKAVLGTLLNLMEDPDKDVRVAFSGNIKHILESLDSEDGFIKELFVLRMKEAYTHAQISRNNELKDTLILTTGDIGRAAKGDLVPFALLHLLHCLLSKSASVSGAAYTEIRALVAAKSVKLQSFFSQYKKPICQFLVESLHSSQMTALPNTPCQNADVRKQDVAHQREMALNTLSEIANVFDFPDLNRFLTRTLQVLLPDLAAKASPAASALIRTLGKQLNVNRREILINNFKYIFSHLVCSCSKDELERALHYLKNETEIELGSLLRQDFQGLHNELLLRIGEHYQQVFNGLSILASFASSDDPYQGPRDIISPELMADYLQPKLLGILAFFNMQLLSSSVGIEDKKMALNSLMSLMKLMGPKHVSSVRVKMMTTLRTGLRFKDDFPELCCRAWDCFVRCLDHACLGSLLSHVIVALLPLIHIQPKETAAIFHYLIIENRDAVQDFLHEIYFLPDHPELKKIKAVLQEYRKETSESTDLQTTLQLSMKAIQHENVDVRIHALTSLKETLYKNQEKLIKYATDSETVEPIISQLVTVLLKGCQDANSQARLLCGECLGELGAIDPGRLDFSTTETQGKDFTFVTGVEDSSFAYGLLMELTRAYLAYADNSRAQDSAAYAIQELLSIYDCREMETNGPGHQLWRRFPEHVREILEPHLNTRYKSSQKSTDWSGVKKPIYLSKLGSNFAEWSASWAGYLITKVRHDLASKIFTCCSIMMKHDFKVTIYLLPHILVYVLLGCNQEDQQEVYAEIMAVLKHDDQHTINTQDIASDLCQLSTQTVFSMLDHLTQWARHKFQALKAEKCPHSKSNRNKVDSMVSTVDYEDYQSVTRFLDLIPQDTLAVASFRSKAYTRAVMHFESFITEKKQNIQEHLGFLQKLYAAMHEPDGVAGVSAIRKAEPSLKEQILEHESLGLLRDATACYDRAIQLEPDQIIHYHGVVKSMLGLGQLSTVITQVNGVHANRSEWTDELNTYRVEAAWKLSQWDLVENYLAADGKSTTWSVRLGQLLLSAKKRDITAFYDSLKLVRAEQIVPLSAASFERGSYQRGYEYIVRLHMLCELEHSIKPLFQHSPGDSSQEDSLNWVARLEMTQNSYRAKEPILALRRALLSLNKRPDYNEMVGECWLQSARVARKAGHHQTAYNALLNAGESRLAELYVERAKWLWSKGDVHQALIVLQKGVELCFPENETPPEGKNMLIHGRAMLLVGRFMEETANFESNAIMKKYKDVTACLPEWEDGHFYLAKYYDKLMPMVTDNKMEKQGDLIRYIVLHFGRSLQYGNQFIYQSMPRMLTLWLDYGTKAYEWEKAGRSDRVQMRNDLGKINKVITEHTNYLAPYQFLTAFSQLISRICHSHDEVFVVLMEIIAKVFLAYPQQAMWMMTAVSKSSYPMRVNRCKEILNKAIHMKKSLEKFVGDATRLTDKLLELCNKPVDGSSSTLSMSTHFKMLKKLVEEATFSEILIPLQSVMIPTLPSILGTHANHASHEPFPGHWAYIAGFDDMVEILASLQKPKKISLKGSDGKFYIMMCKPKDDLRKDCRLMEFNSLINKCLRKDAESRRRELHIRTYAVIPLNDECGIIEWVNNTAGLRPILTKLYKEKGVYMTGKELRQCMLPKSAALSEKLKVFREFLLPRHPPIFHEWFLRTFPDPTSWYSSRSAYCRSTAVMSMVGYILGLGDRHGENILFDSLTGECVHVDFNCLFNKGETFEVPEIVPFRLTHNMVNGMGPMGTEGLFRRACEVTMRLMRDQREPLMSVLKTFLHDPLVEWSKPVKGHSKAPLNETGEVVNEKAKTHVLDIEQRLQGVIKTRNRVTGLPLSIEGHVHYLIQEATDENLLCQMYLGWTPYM
ATR kinase, sequence (Q8WXE1 whole entry partner): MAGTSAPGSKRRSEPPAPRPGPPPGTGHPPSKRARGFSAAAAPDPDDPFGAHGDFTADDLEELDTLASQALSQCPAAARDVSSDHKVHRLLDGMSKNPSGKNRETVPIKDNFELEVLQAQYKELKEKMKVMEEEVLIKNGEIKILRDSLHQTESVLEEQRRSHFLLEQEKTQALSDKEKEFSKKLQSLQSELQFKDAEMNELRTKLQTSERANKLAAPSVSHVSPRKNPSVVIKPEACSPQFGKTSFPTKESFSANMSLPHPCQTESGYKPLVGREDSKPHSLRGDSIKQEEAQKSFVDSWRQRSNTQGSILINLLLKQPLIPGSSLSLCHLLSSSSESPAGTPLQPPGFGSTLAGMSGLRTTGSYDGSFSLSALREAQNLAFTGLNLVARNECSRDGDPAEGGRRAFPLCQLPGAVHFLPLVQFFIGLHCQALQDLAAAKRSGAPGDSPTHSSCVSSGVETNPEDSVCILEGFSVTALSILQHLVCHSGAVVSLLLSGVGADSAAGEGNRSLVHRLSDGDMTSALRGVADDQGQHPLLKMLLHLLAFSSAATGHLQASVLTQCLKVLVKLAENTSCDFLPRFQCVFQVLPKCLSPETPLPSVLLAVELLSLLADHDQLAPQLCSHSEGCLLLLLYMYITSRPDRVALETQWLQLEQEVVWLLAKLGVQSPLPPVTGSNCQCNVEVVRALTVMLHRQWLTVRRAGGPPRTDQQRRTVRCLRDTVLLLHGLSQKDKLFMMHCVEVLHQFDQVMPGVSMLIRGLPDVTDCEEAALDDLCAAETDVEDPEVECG

`CN(C)CCCOc1ccc(-c2ccc3ncc4c(c3c2)n([C@@H]2CCCOC2)c(=O)n4C)cn1` [Example 16, 8-[6-(3-dimethylaminopropoxy)pyridin-3-yl]-3-methyl-1-[(3R)-oxan-3-yl]imidazo[5,4-c]quinolin-2-one]: the IC50 on ATR kinase was > 22.8 µM; on PI3K-α it was 0.311 µM; on mTOR, 0.714 µM.

As to `CN(C)CCCOc1ccc(-c2ccc3ncc4c(c3c2)n([C@H]2CCCOC2)c(=O)n4C)cn1` [Example 17, 8-[6-(3-dimethylaminopropoxy)pyridin-3-yl]-3-methyl-1-[(3S)-oxan-3-yl]imidazo[5,4-c]quinolin-2-one], the half-maximal inhibitory concentration (IC50) at ATR kinase was > 30 µM; on PI3K-α, 0.968 µM; at mTOR, 1.47 µM.

In the case of `CO[C@H]1C[C@@H](n2c(=O)n(C)c3cnc4ccc(-c5ccc(OCCCN(C)C)nc5F)cc4c32)C1` [Example 18, 8-[6-(3-dimethylaminopropoxy)-2-fluoropyridin-3-yl]-1-(cis-3-methoxycyclobutyl)-3-methylimidazo[4,5-c]quinolin-2-one], the concentration for half-maximal inhibition (IC50) is > 30 µM at ATR kinase, 2.73 µM at PI3K-α and 3.78 µM at mTOR.

For the molecule `CO[C@H]1C[C@@H](n2c(=O)n(C)c3cnc4cc(F)c(-c5ccc(OCCCN6CCCC6)nc5)cc4c32)C1` [Example 27, 7-Fluoro-1-(cis-3-methoxycyclobutyl)-3-methyl-8-[6-(3-pyrrolidin-1-ylpropoxy)pyridin-3-yl]imidazo[4,5-c]quinolin-2-one], the IC50 at ATR kinase was > 23.3 µM; at PI3K-α it was > 29.8 µM; on mTOR, > 17.5 µM.

`Cn1c(=O)n([C@H]2CCCOC2)c2c3cc(-c4ccc(OCCCN5CCCC5)nc4)ccc3ncc21` [Example 29, 3-methyl-1-[(3S)-oxan-3-yl]-8-[6-(3-pyrrolidin-1-ylpropoxy)pyridin-3-yl]imidazo[5,4-c]quinolin-2-one]: the 50% inhibitory concentration (IC50) at ATR kinase came out at 19 µM; at PI3K-α, 1.65 µM; at mTOR, 0.605 µM.

Regarding `Cn1c(=O)n(C2CCOCC2)c2c3cc(-c4ccc(OCCCN5CCCC5)nc4)ccc3ncc21` [Example 30, 3-methyl-1-(oxan-4-yl)-8-[6-(3-pyrrolidin-1-ylpropoxy)pyridin-3-yl]imidazo[5,4-c]quinolin-2-one], the figures for the IC50 on ATR kinase, at PI3K-α and at mTOR were 19 µM, 2.33 µM and 1.57 µM, respectively.

As for `CO[C@H]1C[C@@H](n2c(=O)n(C)c3cnc4ccc(-c5ccc(OCCCN6CCCCC6)nc5)cc4c32)C1` [Example 33, 1-(cis-3-methoxycyclobutyl)-3-methyl-8-[6-(3-piperidin-1-ylpropoxy)pyridin-3-yl]imidazo[4,5-c]quinolin-2-one], the half-maximal inhibitory concentration (IC50) at PI3K-α came out at 12.4 µM; on mTOR, 2.87 µM.

For the molecule `CN(C)CCCOc1ccc(-c2ccc3ncc4c(c3c2)n(C2COC2)c(=O)n4C)c(F)n1` [Example 52, 8-[6-[3-(dimethylamino)propoxy]-2-fluoro-3-pyridyl]-3-methyl-1-(oxetan-3-yl)imidazo[4,5-c]quinolin-2-one methanesulfonic acid salt], the IC50 on ATR kinase was > 30 µM; at PI3K-α, 7.2 µM; at mTOR, 12.1 µM.

Consider `Cn1c(=O)n([C@@H]2CCCOC2)c2c3cc(-c4ccc(OCCCN5CCCC5)nc4)ccc3ncc21` [Example 59, 3-methyl-8-[6-(3-pyrrolidin-1-ylpropoxy)-3-pyridyl]-1-[(3R)-tetrahydropyran-3-yl]imidazo[4,5-c]quinolin-2-one], for which the IC50 is > 19.1 µM on ATR kinase, 0.264 µM on PI3K-α and 0.61 µM on mTOR.

For `CO[C@H]1CC[C@H](n2c(=O)n(C)c3cnc4ccc(-c5ccc(OCCCN6CCCC6)nc5)cc4c32)C1` [Example 66, 1-[(1S,3S)-3-methoxycyclopentyl]-3-methyl-8-[6-(3-pyrrolidin-1-ylpropoxy)-3-pyridyl]imidazo[4,5-c]quinolin-2-one], the IC50 stood at 7.85 µM at ATR kinase, 1.49 µM at PI3K-α and 3.32 µM at mTOR.

Source of the values: US9428503B2, “Imidazo[4,5-c]quinolin-2-one compounds and their use in treating Cancer” (AstraZeneca AB, priority 2014, dated 2016).
